Earlier results as cited in patent US20080299102A1, “Novel BACE proteins, nucleic acid molecules therefor, novel crystal structure of novel BACE proteins, and methods for making and using” (priority 2001, published 2008).
Where a SMILES comes first, the peptide text is derived from it. [ ]: non-standard residue; d: D form. The star is where a group is joined. Sta = CC(C)C[C@H](N)[C@@H](O)CC(=O)O; Isovaleryl = CC(C)CC(=O)*

Target: BACE (Homo sapiens, UniProt P56817)
Details: general statement in the description, no test data given

Chain of BACE (P56817 46-501): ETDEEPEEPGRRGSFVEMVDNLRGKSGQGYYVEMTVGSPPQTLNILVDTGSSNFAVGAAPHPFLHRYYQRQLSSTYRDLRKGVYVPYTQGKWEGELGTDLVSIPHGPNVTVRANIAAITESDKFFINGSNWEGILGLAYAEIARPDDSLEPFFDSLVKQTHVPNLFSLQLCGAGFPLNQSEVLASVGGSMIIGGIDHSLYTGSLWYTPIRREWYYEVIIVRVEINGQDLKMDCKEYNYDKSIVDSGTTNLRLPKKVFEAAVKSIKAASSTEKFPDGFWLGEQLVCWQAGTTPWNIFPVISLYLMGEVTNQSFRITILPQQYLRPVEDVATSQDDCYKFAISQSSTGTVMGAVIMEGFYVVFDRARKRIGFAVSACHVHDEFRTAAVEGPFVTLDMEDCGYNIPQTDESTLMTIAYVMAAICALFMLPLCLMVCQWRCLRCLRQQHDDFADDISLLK

**Q.** For `CC(C)CC(=O)N[C@H](C(=O)N[C@H](C(=O)N[C@@H](CC(C)C)[C@@H](O)CC(=O)N[C@@H](C)C(=O)N[C@@H](CC(C)C)[C@@H](O)CC(=O)O)C(C)C)C(C)C` [pepstatin] (Isovaleryl-VV[Sta]A[Sta]-OH), which “inhibition of BACE” value is on record?
**A.** The value was “not inhibited”.
